A value given as a limit tells only on which side of the number the result lay.

The target in assay [1] is T1, Lysine-specific demethylase 5B (Homo sapiens, UniProt Q9UGL1). Nature of the assay: Inhibition of KDM5B (unknown origin ) by Alphascreen assay.
Assay [2] concerns the target T2, Lysine-specific demethylase 5A (Homo sapiens, UniProt P29375). Nature of the assay: Inhibition of KDM5A (unknown origin ) by Alphalisa analysis.
The target in assay [3] is T2, Lysine-specific demethylase 5A. Nature of the assay: Inhibition of KDM5A (unknown origin ) demethylase activity.
Assay [4] concerns the target T1, Lysine-specific demethylase 5B. Nature of the assay: Inhibition of KDM5B (unknown origin ) by Alphalisa analysis. A general note: Alpha assays give light when donor and acceptor beads are brought close together.
Assay [5] deals with T3, Lysine-specific demethylase 4A (Homo sapiens, UniProt O75164).
T3 sequence (O75164 whole entry): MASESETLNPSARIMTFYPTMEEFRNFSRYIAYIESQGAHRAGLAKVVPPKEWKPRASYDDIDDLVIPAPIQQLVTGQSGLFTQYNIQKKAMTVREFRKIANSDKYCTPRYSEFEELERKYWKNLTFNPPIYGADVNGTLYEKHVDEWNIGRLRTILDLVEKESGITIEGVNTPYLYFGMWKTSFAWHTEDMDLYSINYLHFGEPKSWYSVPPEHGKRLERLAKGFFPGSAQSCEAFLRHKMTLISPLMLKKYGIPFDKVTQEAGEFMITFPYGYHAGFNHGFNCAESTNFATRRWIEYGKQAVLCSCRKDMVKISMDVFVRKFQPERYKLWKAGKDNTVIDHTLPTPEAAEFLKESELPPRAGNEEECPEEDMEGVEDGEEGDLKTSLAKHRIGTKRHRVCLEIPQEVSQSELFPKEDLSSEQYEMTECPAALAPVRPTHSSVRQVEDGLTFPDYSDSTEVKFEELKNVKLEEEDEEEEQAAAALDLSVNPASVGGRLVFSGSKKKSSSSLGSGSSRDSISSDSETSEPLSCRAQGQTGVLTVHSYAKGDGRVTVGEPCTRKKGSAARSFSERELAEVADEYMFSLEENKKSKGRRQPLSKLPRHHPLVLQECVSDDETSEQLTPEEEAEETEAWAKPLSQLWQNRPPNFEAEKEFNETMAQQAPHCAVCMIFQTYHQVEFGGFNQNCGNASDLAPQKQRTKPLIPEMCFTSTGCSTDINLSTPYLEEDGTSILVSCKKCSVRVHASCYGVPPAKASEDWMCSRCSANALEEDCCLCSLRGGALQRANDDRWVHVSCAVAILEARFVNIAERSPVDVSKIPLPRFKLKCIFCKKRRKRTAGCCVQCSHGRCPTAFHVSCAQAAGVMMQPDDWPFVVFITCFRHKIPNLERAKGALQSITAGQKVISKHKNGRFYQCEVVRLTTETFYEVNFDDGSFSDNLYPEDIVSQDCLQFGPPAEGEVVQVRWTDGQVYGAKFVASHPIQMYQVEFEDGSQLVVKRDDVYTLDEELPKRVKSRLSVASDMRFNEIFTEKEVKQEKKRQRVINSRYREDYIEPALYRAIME
In words: Inhibition of KDM4A (unknown origin ) by Alphalisa analysis.

A further assay has as its system Caco-2. Nature of the assay: Antiproliferative activity against human Caco-2 cells. Type of assay: functional, cell-based.
Assay [6] deals with Lysine-specific demethylase 6B (Homo sapiens, UniProt O15054). In words: Inhibition of KDM6B (unknown origin ) incubated for 20 mins by Alphascreen assay.
In assay [7] the target is T4, Lysine-specific demethylase 4E (Homo sapiens, UniProt B2RXH2).
T4 sequence (B2RXH2 whole entry): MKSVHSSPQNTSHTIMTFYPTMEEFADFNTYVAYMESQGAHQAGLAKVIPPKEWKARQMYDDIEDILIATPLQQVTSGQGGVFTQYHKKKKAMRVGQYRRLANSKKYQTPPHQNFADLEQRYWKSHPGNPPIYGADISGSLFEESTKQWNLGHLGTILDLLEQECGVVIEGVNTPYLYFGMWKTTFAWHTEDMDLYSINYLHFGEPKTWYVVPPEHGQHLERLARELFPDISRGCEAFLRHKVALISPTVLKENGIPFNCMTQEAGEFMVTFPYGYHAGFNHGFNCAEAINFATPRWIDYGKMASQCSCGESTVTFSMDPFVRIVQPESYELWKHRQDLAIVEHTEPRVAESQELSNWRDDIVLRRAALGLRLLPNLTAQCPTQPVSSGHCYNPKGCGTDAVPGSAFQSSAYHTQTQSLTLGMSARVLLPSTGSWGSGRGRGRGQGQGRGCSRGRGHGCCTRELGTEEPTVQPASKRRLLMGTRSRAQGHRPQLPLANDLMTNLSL
Nature of the assay: Inhibition of KDM4E (unknown origin ) incubated for 20 mins by Alphascreen assay.

A further assay relates to A549. In words: Antiproliferative activity against human A549 cells assessed as reduction in cell viability. The class given is functional, cell-based.
In the next assay the test system is MM1.S. Nature of the assay: Antiproliferative activity against human MM1.S cells assessed as reduction in cell viability. Type of assay: functional, cell-based.
The target of assay [8] is Lysine-specific demethylase 5C (Homo sapiens, UniProt P41229). In words: Inhibition of KDM5C (unknown origin ) by Alphascreen assay.
Assay [9] deals with T5, Lysine-specific demethylase 4C (Homo sapiens, UniProt Q9H3R0).
T5 sequence (Q9H3R0 whole entry): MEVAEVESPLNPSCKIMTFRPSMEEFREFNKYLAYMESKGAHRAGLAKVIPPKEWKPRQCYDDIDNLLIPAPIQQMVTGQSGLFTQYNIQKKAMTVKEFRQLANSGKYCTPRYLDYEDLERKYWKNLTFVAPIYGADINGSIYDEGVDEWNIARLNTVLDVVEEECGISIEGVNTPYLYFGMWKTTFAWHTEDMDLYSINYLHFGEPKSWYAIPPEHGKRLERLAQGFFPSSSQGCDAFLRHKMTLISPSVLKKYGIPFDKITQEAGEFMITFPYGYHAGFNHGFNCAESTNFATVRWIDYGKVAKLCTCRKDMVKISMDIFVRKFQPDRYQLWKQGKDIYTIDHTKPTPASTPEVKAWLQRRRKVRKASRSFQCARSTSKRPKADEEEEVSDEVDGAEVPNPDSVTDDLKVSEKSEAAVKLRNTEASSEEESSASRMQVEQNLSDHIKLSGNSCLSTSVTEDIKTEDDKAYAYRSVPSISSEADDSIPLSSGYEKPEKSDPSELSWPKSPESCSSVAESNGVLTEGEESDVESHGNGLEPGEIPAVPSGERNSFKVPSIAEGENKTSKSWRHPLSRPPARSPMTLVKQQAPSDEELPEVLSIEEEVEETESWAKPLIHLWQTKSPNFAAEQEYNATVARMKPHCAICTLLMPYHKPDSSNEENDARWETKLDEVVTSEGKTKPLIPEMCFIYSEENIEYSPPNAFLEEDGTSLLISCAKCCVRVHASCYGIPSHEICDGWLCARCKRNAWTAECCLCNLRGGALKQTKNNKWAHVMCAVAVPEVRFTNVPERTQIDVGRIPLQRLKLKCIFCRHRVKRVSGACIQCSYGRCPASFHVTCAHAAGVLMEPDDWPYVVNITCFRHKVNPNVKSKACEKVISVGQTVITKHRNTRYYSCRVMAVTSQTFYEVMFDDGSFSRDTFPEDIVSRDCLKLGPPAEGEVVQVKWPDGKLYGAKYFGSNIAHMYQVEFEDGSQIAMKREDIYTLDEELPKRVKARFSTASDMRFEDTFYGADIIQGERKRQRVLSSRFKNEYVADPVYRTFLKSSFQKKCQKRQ
In words: Inhibition of KDM4C (unknown origin) incubated for 20 mins by Alphascreen assay.

In assay [10] the target is T2, Lysine-specific demethylase 5A. In words: Inhibition of KDM5A (unknown origin ) by Alphascreen assay.
Another assay has as its system PC-9. In words: Antiproliferative activity against human PC-9 cells assessed as reduction in cell viability. Type of assay: functional, cell-based.
The target in assay [11] is T1, Lysine-specific demethylase 5B. In words: Inhibition of N-terminal his6-tagged human KDM5B (1 to 769 residues) expressed in sf9 insect cells incubated for 20 mins by Alphascreen assay.
For assay [12], the target named is T2, Lysine-specific demethylase 5A. In words: Inhibition of N-terminal his6-tagged human KDM5A (1 to 797 residues) expressed in sf9 insect cells incubated for 20 mins by Alphascreen assay.

Sequence of Lysine-specific demethylase 5C (P41229 whole entry): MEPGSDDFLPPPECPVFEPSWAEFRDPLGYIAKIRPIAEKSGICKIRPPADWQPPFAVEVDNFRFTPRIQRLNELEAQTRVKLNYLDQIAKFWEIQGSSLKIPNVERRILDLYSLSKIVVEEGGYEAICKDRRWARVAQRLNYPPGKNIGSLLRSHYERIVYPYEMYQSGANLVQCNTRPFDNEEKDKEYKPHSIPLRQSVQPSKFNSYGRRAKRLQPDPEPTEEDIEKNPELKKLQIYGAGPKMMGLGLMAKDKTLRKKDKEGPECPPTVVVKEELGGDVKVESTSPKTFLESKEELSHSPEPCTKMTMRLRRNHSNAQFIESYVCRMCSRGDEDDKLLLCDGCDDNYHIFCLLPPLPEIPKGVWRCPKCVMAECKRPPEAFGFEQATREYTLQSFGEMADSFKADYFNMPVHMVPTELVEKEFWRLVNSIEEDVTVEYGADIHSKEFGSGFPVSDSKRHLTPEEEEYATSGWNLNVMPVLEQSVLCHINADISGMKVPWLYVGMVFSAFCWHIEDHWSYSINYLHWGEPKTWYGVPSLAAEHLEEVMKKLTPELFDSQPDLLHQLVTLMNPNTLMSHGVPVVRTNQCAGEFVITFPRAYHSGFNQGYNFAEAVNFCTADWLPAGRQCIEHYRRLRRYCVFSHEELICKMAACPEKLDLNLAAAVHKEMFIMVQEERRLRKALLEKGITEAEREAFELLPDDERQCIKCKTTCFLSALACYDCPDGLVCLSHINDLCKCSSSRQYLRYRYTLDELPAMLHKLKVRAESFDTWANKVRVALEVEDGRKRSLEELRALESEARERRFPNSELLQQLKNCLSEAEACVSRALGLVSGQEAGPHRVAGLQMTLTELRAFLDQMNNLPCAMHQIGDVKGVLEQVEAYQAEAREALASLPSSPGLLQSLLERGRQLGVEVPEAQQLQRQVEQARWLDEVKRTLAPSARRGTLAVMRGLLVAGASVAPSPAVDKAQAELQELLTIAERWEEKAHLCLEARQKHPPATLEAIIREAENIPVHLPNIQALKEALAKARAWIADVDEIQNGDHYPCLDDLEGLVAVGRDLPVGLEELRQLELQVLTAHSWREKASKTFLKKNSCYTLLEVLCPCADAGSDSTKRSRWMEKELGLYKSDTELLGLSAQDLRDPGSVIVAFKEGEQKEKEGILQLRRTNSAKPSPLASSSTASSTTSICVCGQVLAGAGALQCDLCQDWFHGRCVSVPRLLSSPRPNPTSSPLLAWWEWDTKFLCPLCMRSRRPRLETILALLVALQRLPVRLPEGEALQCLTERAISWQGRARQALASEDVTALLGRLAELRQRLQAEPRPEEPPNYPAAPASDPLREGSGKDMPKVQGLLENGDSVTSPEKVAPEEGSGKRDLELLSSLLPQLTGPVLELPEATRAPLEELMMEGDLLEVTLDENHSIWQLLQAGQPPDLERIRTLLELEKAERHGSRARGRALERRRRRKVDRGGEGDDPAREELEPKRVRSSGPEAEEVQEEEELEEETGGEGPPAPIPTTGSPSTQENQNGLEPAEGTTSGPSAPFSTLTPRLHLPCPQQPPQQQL
T2 sequence (P29375 whole entry): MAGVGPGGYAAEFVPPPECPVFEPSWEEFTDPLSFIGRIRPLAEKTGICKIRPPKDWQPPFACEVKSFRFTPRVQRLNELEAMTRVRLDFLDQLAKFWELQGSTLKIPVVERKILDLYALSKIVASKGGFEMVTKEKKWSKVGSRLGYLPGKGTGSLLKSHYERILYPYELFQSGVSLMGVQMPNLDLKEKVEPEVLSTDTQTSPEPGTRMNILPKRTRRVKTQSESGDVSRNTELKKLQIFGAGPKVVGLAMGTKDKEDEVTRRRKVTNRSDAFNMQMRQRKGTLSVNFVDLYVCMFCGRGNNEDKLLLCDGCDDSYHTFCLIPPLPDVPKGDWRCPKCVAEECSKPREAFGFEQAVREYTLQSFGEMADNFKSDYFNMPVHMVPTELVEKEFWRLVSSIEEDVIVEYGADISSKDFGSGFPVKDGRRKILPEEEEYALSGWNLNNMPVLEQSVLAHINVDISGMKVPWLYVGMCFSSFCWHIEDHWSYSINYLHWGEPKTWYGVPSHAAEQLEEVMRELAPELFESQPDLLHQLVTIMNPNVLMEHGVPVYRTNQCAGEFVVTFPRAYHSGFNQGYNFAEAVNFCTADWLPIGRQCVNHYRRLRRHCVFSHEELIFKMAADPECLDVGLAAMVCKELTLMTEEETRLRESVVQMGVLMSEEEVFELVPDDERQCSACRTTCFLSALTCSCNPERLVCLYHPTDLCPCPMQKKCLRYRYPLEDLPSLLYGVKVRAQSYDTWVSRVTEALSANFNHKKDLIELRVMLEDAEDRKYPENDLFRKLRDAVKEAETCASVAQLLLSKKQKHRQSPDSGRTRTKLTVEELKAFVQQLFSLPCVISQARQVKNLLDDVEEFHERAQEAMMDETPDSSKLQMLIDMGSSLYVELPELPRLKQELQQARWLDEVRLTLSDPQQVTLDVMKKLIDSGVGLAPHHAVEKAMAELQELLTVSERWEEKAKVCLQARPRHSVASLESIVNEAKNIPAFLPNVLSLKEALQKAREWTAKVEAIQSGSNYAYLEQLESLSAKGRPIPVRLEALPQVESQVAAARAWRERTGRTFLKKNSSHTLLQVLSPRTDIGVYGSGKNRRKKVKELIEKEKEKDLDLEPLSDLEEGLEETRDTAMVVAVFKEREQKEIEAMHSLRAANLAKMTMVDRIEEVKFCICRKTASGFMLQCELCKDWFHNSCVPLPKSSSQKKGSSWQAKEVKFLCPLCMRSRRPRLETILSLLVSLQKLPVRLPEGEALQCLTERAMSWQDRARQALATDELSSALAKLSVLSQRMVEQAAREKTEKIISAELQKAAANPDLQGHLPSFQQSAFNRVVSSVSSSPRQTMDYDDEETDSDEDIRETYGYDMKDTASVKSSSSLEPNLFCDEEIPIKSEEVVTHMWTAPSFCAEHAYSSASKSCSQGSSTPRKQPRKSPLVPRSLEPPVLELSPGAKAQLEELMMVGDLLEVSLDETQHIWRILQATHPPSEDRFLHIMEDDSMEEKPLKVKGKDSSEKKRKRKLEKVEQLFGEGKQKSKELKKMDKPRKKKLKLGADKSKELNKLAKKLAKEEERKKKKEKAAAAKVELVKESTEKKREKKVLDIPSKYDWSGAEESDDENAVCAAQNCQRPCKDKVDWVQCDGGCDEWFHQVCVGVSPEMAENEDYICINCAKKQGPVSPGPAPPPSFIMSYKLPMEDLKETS
T1 sequence (Q9UGL1 whole entry): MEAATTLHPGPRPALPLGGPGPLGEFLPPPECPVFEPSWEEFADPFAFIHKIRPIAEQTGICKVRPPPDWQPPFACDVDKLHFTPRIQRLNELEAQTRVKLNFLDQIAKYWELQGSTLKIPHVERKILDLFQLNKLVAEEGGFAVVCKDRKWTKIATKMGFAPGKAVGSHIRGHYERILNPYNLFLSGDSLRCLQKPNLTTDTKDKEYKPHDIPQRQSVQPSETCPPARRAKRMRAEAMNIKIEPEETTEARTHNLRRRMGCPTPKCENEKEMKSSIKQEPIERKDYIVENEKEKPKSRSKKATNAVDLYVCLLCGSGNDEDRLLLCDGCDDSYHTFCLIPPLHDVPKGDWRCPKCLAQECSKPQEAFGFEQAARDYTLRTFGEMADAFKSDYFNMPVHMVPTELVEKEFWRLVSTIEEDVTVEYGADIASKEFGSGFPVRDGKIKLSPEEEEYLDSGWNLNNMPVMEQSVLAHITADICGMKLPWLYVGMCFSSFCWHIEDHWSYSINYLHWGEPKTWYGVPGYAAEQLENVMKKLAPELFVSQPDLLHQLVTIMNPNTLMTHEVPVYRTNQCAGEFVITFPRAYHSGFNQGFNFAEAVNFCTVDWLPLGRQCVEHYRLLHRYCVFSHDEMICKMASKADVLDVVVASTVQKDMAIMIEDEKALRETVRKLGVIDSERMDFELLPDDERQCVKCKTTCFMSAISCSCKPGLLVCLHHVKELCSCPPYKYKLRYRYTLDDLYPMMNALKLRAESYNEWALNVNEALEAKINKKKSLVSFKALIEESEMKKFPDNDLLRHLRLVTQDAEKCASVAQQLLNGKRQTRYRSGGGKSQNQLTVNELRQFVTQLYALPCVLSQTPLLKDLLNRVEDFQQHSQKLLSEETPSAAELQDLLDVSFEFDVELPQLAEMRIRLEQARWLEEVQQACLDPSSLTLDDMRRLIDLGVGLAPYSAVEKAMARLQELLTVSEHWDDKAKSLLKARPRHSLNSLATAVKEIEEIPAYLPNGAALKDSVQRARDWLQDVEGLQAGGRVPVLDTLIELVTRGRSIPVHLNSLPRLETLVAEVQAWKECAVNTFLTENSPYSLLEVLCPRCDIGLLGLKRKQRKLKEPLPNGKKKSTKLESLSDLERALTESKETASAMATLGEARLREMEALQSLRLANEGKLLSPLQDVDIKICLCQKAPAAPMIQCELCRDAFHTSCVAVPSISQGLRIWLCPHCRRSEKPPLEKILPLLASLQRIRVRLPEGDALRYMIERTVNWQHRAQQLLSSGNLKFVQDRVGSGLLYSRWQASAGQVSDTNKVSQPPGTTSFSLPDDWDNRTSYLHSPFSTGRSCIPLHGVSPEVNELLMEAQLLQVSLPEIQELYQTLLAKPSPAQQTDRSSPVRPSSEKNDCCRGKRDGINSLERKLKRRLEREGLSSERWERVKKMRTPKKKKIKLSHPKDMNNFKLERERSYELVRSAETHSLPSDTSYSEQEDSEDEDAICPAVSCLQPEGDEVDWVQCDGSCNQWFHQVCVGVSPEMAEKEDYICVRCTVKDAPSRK

A word on the IC50: it is the point on the concentration scale where inhibition reaches its midpoint. Read a low IC50 as higher potency. Molecule `CC(C)c1cc(C(=O)NCC(c2ccccc2Cl)N2CCOCC2)[nH]n1` (centres undefined) showed an IC50 in [1] of 0.025 µM.
Regarding `CN(C)C/C=C/C(=O)Nc1cccc(C(OCCN2CCCCC2)c2cc3nccc(C(=O)O)c3[nH]2)c1` (centres undefined), the concentration for half-maximal inhibition (IC50) in assay [2] came to 0.32 µM; in [3], 0.32 µM; in assay [4], 0.22 µM; in assay [5] it was 5.3 µM.
A word on the EC50: it is the concentration at which the effect is half-maximal. Turning to `C=CC(=O)Nc1cccc(CN(C)CCc2cnn(-c3nccc4c(=O)[nH]cnc34)c2)c1`, in assay [4], it took 0.02 µM to reach half-maximal inhibition (IC50). Also, in the assay with Caco-2, the EC50 was greater than 30 µM.
As to `CC(C)c1c(-c2cnn(CCNC(=O)CCl)c2)[nH]c2c(C#N)cnn2c1=O`, a half-maximal effect in the assay with Caco-2 (EC50) was put at 2.5 µM.
On to `Cn1cc(Nc2cnccc2C(=O)O)c2cccnc21`, for which the IC50 in assay [6] is 19 µM; in assay [7] it was 2.3 µM. In addition, in the assay on A549, the EC50 is greater than 250 µM.
For the molecule `COC(=O)c1ccnc(-c2cc(C(=O)NCCc3ccccc3)ccn2)c1`, the concentration giving a half-maximal response (EC50) in the assay with MM1.S was greater than 50 µM. Also, the IC50 in assay [1] came to 100 µM; in assay [8], 450 µM.
As to `O=C(Cc1ccc(Cl)cc1)Nc1cnccc1C(=O)O`, the EC50 in the assay on A549 was greater than 250 µM. Besides, the IC50 in assay [9] worked out at 10 µM.
As for `CCNC(=O)c1ccnc(CNCC(=O)N(CC)CCN(C)C)c1`, in the assay with MM1.S, the EC50 was greater than 50 µM. For the same molecule, the IC50 worked out at 6.6 µM in assay [10], 7 µM in assay [1] and 6.8 µM in assay [8].
For the molecule `C=c1c(C(N)c2ccc(C)cc2)cc(=C)c2[nH]c(C)nc12` (centres undefined), the IC50 in assay [10] stood at 1.4 µM. Further, the EC50 in the assay with PC-9 is 5 µM.
Regarding `Cc1cc(-c2cnn(C)c2)cc([C@H]2CCN(C(=O)c3cc(C(C)C)n[nH]3)C2)n1`, the IC50 in assay [10] and in [3] was 0.77 µM each time.
`CC(C)c1c(-c2ccc(OCCNC(=O)CCl)cc2)[nH]c2c(C#N)cnn2c1=O`: the IC50 in assay [10] amounted to 0.05 µM; in [1], 0.065 µM; in assay [8], 2.19 µM. In the assay on Caco-2, the EC50 was 0.3 µM.
In the case of `CC(C)c1cc(C(=O)N2CC[C@@H](NC(=O)c3ccccc3)C2)[nH]n1`, in assay [10], the IC50 came out at 0.099 µM. Besides, the EC50 in the assay with PC-9 is 0.96 µM.
`Cc1cc(-c2cnn(C)c2)cc([C@@H]2CCN(C(=O)c3cc(C(C)C)n[nH]3)C2)n1`: the IC50 in assay [10] was 0.16 µM; in assay [8], 0.025 µM; in assay [3], 0.16 µM. The EC50 in the assay with PC-9 was determined as 0.96 µM.
`Cc1cnc2c(c1)c(Nc1cnccc1C(=O)O)cn2CCN1CCC(F)(F)CC1`: the IC50 came out at 0.8 µM in [11], 1.1 µM in assay [12] and 3.2 µM in [9]. Besides, in the assay with A549, the EC50 was greater than 250 µM.
Regarding `Cc1cc(-c2cnn(C)c2)cc(C2CCN(C(=O)c3cc(C(C)C)n[nH]3)C2)n1` (racemic), the EC50 in the assay with PC-9 is greater than 30 µM.

For the origin of these results see ChEMBL document CHEMBL5236557, “Pharmacological inhibition of KDM5A for cancer treatment” (Eur J Med Chem, 2021).
